# Measured values taken from PubChem BioAssay (NCI).
#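 A five-concentration, 48-hour dose response in 96-well plates underlies each endpoint, interpolated linearly between surrounding concentrations. GI50 marks 50% less growth. TGI: total growth inhibition.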
# Columns and labels:
# Assay in all cases: growth of human tumour cells (NCI), 48 h
# [1] = system: TK-10 renal
# [2] = system: HCT-15 colon
# [3] = system: K-562 leukemia
# [4] = system: RPMI-8226 leukemia
# [5] = system: UACC-62 melanoma
# [6] = system: SF-268 CNS
# [7] = system: SNB-19 CNS
# [8] = system: SK-MEL-28 melanoma
# [9] = system: OVCAR-3 ovarian
# [10] = system: NCI-H522 lung
Structure (SMILES),TGI [1],TGI [2],TGI [3],TGI [4],TGI [5],TGI [6],TGI [7],TGI [8],TGI [9],TGI [10],GI50 [1],GI50 [2],GI50 [3],GI50 [4],GI50 [5],GI50 [10],GI50 [6],GI50 [7],GI50 [8],GI50 [9]
CC(C)(C)[Si](Nc1ccccc1)(c1ccccc1)c1ccccc1,28 µM,28.4 µM,25.1 µM,44.1 µM,22.7 µM,28 µM,27.1 µM,32 µM,27.4 µM,,,,,,,,,,,
CN(C)C(=S)/N=c1\ssc(=S)n1Cc1ccccn1,> 100 µM,> 100 µM,,> 25.9 µM,11 µM,> 100 µM,> 100 µM,> 100 µM,11.3 µM,4.17 µM,,,,,,,,,,
COc1cc(CCC(=O)NS(=O)(=O)c2ccccc2)cc(OC)c1OC,> 100 µM,,> 100 µM,> 100 µM,> 100 µM,> 100 µM,> 100 µM,> 100 µM,> 100 µM,> 100 µM,,,,,,,,,,
CCCCCCCCCCCCCCCCCCOCC1(COP(=O)([O-])OCC[N+](C)(C)C)CCCO1 (centres undefined),3.54 µM,,31.7 µM,8.55 µM,21.4 µM,18.2 µM,11.1 µM,32.2 µM,15.7 µM,6.23 µM,,,,,,,,,,
O=C(Cc1nc2ccccc2s1)C(=O)Nc1ccc(Cl)cc1Cl,> 100 µM,> 100 µM,> 100 µM,> 100 µM,,> 100 µM,> 100 µM,> 100 µM,> 100 µM,,,,,,,,,,,
C=C(C)C(=O)N1c2ccc(OC)cc2CC1C(=O)OCC (centres undefined),> 100 µM,> 100 µM,> 100 µM,,> 100 µM,> 100 µM,> 100 µM,> 100 µM,> 100 µM,> 100 µM,,,,,,,,,,
O=C(O)C1=C(Cl)c2ccccc2S1(=O)=O,> 100 µM,> 100 µM,> 100 µM,> 100 µM,> 100 µM,> 100 µM,> 100 µM,> 100 µM,,40.7 µM,,,,,,,,,,
CCCCCCCCCCCCOC(=S)NC,25.4 µM,32.5 µM,45.9 µM,36.1 µM,31 µM,36 µM,> 100 µM,44 µM,,58 µM,,,,,,,,,,
CSc1ccc(C(=O)/C=C/c2ccc(F)cc2)cc1,> 100 µM,> 100 µM,65.3 µM,54.2 µM,> 100 µM,> 100 µM,> 100 µM,> 100 µM,,> 100 µM,85.3 µM,29.4 µM,25.9 µM,22.9 µM,> 100 µM,38.9 µM,75.9 µM,> 100 µM,69.3 µM,
COc1cc(C(=O)/C=C/c2c(-c3cccs3)nc3ccccn23)cc(OC)c1OC,25.4 µM,5.31 µM,,3.72 µM,3.57 µM,8.47 µM,5.56 µM,,5.36 µM,2.38 µM,3.78 µM,1.6 µM,,1.23 µM,1.61 µM,1.1 µM,2.37 µM,2.1 µM,,2.44 µM
Oc1oc(-c2ccccc2)nc1/C=C1/C=NN=N1,> 100 µM,> 100 µM,> 100 µM,> 100 µM,> 100 µM,> 100 µM,> 100 µM,> 100 µM,> 100 µM,,,,,,,,,,,
COC(=O)C1=C2CO[C@@H]3C[C@H]4C(C)(C)CCC[C@]4(C)C(=CC1)[C@]23C,> 100 µM,> 100 µM,,29.9 µM,> 100 µM,> 100 µM,> 100 µM,> 100 µM,32.2 µM,> 100 µM,42.8 µM,41.7 µM,,13.6 µM,41.9 µM,29.4 µM,98.3 µM,46.8 µM,45.3 µM,11.1 µM
C/C(CC(=O)Nc1ccc(NC(=O)/C(C)=N/NS(=O)(=O)c2ccc(C)cc2)cc1)=N\NS(=O)(=O)c1ccc(C)cc1,> 100 µM,> 100 µM,> 100 µM,> 100 µM,> 100 µM,> 100 µM,,> 100 µM,> 100 µM,,,,,,,,,,,
COc1cc(C(=C2SCCS2)c2nccc3cc(OC)c(OC)cc23)c([N+](=O)[O-])cc1OC,> 100 µM,,> 100 µM,> 100 µM,> 100 µM,> 100 µM,> 100 µM,> 100 µM,> 100 µM,> 100 µM,,,,,,,,,,
NCCCn1c2c(c3ccc([N+](=O)[O-])cc3c1=O)C(=O)c1cc(Cl)ccc1-2,0.811 µM,0.208 µM,0.0411 µM,0.0367 µM,0.0696 µM,0.391 µM,0.227 µM,1.67 µM,,,0.379 µM,0.0285 µM,< 0.01 µM,< 0.01 µM,< 0.01 µM,,< 0.01 µM,< 0.01 µM,0.126 µM,
CN(C)NC(=S)NC12CC3CC(CC(C3)C1)C2,> 100 µM,> 100 µM,> 100 µM,,> 100 µM,> 100 µM,> 100 µM,> 100 µM,> 100 µM,> 100 µM,,,,,,,,,,
CC1(C)CC(O)CCCCCCOc2c(CN)cccc2NC(=O)c2nc(cnc2N)-c2ccc(cc2)S1(=O)=O (centres undefined),3.86 µM,2.56 µM,2.69 µM,,3.3 µM,3.44 µM,4.46 µM,2.48 µM,3.34 µM,2.96 µM,1.52 µM,0.263 µM,0.0538 µM,,1.67 µM,1.22 µM,1.27 µM,1.66 µM,1.13 µM,0.183 µM
CO[C@H]1/C=C/C[C@H](C)[C@@H](C)S(=O)(=O)NC(=O)c2ccc3c(c2)N(C[C@@H]2CC[C@H]21)C[C@@]1(CCCc2cc(Cl)ccc21)CO3,11.1 µM,8.43 µM,,0.534 µM,2.46 µM,14 µM,14.1 µM,8.04 µM,3.75 µM,3.3 µM,2.8 µM,2.54 µM,,0.132 µM,0.659 µM,1.39 µM,3.6 µM,3.45 µM,2.61 µM,1.9 µM
COC(=O)NN=C1C(C)(C)C(=NNC(=O)OC)C1(C)C,> 100 µM,> 100 µM,> 100 µM,,> 100 µM,> 100 µM,> 100 µM,> 100 µM,> 100 µM,> 100 µM,,,,,,,,,,

Structure (SMILES),TGI [1],TGI [2],TGI [3],TGI [4],TGI [5],TGI [6],TGI [7],TGI [8],TGI [9],TGI [10],GI50 [1],GI50 [2],GI50 [3],GI50 [4],GI50 [5],GI50 [10],GI50 [6],GI50 [7],GI50 [8],GI50 [9]
O=C1c2c(O)cccc2C(C(=O)CCCC(=O)C2c3cccc(O)c3C(=O)c3c(O)cccc32)c2cccc(O)c21,1.67 µM,1.38 µM,4.86 µM,0.752 µM,2.04 µM,3.39 µM,4.12 µM,4.53 µM,0.798 µM,,,,,,,,,,,
CC(C)(C)n1cc(-c2ccnc(NCCCNS(=O)(=O)c3ccc(Cl)cc3)c2)c(-c2cccc(O)c2)n1,5.93 µM,3.35 µM,,,3.29 µM,5.78 µM,4.96 µM,3.06 µM,3.72 µM,3.91 µM,2.38 µM,1.52 µM,,,1.65 µM,1.92 µM,2.18 µM,2.18 µM,1.57 µM,1.89 µM
CCC(C)c1cnc(CC(C)C)c(=O)[nH]1 (centres undefined),> 100 µM,> 100 µM,> 100 µM,> 100 µM,> 100 µM,> 100 µM,> 100 µM,> 100 µM,> 100 µM,,,,,,,,,,,
C=C(C)C1CCC2(CO)C(O)CC3(C)C(CCC4C5(C)CCC(O)C(C)(C)C5CCC43C)C12 (centres undefined),30.2 µM,88 µM,33.3 µM,,,> 100 µM,84.1 µM,32.5 µM,29.2 µM,42.4 µM,,,,,,,,,,
CN(C)CCN1C(=O)c2cccc3c(-c4ccc5ncn(C6CCCCC6)c5c4)ccc(c23)C1=O,12.6 µM,10.6 µM,> 100 µM,6.1 µM,,12.8 µM,20.1 µM,5.66 µM,8.78 µM,5.24 µM,2.14 µM,1.34 µM,1.27 µM,1.03 µM,,1.85 µM,2.73 µM,1.88 µM,2.18 µM,2.28 µM
CC(=O)Oc1cc(OC(C)=O)c2cc3c(cc2c1OC(C)=O)C(=O)C1(CCCC1)C3=O,31.3 µM,39.3 µM,49.3 µM,4.89 µM,30.2 µM,66.5 µM,,31.7 µM,34.5 µM,,,,,,,,,,,
C/C=C/COc1cc(NC(=S)c2ccoc2C)ccc1OC,> 100 µM,> 100 µM,,76.7 µM,> 100 µM,> 100 µM,> 100 µM,> 100 µM,> 100 µM,> 100 µM,,,,,,,,,,
CN(Cc1ccccc1)c1nc(=[N+](C)C)ss1,> 100 µM,> 100 µM,> 100 µM,> 100 µM,> 100 µM,> 100 µM,> 100 µM,> 100 µM,,> 100 µM,,,,,,,,,,
C[C@@]1(CBr)C[C@@](C)(/C=C/Cl)[C@@H](Cl)C[C@H]1Cl,28.7 µM,,25.3 µM,,29.1 µM,30.1 µM,27.1 µM,31.3 µM,22.8 µM,14.5 µM,,,,,,,,,,
CCN1CCN(c2cc(C)nc(NCc3cc(Nc4ccnc5cc(Cl)ccc45)ccc3F)n2)CC1,45.4 µM,11.7 µM,> 100 µM,8.72 µM,,40 µM,> 100 µM,3.71 µM,11.8 µM,36 µM,18.8 µM,2.19 µM,1.04 µM,2.13 µM,,7.21 µM,4.09 µM,3.71 µM,1.84 µM,2.94 µM
CC(=O)NNc1nc(C)c(C(/C=C/c2ccc(Cl)cc2)=N/NC(=S)NN)s1,> 100 µM,> 100 µM,> 100 µM,> 100 µM,> 100 µM,> 100 µM,> 100 µM,> 100 µM,,> 100 µM,,,,,,,,,,
CC(=O)OC1C/C(C)=C/[C@H](O)CC(C)/C=C/[C@@]2(C)CCC(C(C)(C)O)C12 (some centres undefined),> 100 µM,> 100 µM,> 100 µM,> 100 µM,> 100 µM,> 100 µM,> 100 µM,> 100 µM,> 100 µM,,,,,,,,,,,
CN(/C(=N\O)c1ccccc1)c1ccccc1,,,,,,97 µM,90.3 µM,,59.2 µM,40.3 µM,,,,,,,,,,
N#CNc1nc(C(=O)Nc2ccc(Cl)cc2)cc(-c2ccccc2)n1,,> 100 µM,> 100 µM,> 100 µM,> 100 µM,> 100 µM,> 100 µM,> 100 µM,> 100 µM,,,,,,,,,,,
CC(=O)[CH-]C(=O)c1ccccc1.CC(=O)[CH-]C(=O)c1ccccc1.CC[O-].O=C1C=C([O-])C(=O)c2ccccc21.[Ti+4],,> 100 µM,> 100 µM,85.8 µM,> 100 µM,> 100 µM,> 100 µM,> 100 µM,> 100 µM,69.3 µM,,56.2 µM,> 100 µM,16.9 µM,38.8 µM,10.6 µM,> 100 µM,> 100 µM,> 100 µM,42.6 µM
O=C1/C(=C/c2ccc(C(F)(F)F)cc2)COc2ccc(O)cc21,14.3 µM,3.47 µM,,0.885 µM,6.84 µM,13.6 µM,3.98 µM,3.8 µM,3.09 µM,3.69 µM,3.7 µM,1.66 µM,,0.29 µM,2.36 µM,1.59 µM,2.75 µM,1.91 µM,1.79 µM,1.7 µM
CCOC(CN(C)C(=O)OCC(Cl)(Cl)Cl)OCC,> 100 µM,> 100 µM,> 100 µM,,> 100 µM,> 100 µM,> 100 µM,> 100 µM,> 100 µM,> 100 µM,,,,,,,,,,
CCc1ccccc1NC(=O)C1=C(C)NC(C)=C(C(=O)Nc2ccccc2CC)C1c1ccc(NC(C)=O)cc1,> 100 µM,,77.9 µM,48.9 µM,,> 100 µM,> 100 µM,52.9 µM,> 100 µM,71.1 µM,,,,,,,,,,
